Test results taken from patent US20100184113A1, “CONTROLLING OSTEOGENESIS BY INHIBITION OF OSTEOGENIC SUPPRESSORS” (The Scripps Research Institute Office of Patent Counsel, priority 2006, published 2010).

Key:
Assay type in all cases: cell-based, human
hMSCs [1] = assay: Alkaline phosphatase (ALP) activity staining of hMSCs after siRNA transfection
Description: The human mesenchymal stem cells (hMSCs, PT-2501) were purchased from Cambrex Inc. and cultured as instructed by the supplier. Cells were expanded to passage 5 before being used for siRNA library screen. Briefly, diluted Xtreme-siRNA transfection reagent (cat# 476 115 00, Roche) (0.12 μl Xtreme in 14 μl DMEM) was mixed with pre-spotted siRNA (14 ng/well) in each well of 384-well plates for one hour. Cells (4000/well) in 60 μl media (no antibiotics) were then added using automated dispenser (Multidrop 384, Thermo LabSystems) (siRNA final concentration at around 15 nM). Transfection was allowed to continue for 8 hours before first media renewal. After 7 days of culture, cells were stained for alkaline phosphatase (ALP) activity (cat# 86R-1 KT, Sigma). Post-screen assays were done in 96-well plates and siRNA was transfected at the concentration of 30 nM at the cell density of 8000 cells/well. CRE decoy oligonucleotide and control oligonucleotide (phosphorothioate bond modification on all nucleotides) (Park, Y. G. et al., J Biol Chem 274:1573-1580 (1999)) were transfected into cells similarly as siRNA using Xtreme-siRNA transfection reagent, except that the final DNA concentration was 90 nM. […]

hMSCs [2] = assay: Adipogenic differentiation of hMSCs, Oil Red O staining; conditions: Adipo from third day after siRNA transfection, continued 12 days, Oil Red O
Description: Cells were rinsed with PBS twice, fixed in 10% formalin solution for 20 minutes, rinsed with PBS twice and dH2O once, washed with propylene glycol for 5 minutes, and stained with Oil red in propylene glycol (12722A, Newcomer Supply) for 30 minutes. Cells were then washed with 85% propylene glycol for 5 minutes, rinsed with dH2O 3 times and preserved in 50% glycerol.
8-CPT-cAMP, Na (cat# 116812), 5-Iodotubercidin (cat# 407900), Prostaglandin E2 (PGE2, cat# 538904), SB 202190 (cat# 559388) and U0126 (cat# 662005) were purchased from Calbiochem; N6,2′-O-Dibutyryl-cAMP (cat# D0260-5MG), forskolin (cat# F6886), ascorbic acid 2-phosphate (cat# 49752-10G), (3-glycerophosphate (G-6251), dexamethasone (D8893), 3-isobutyl-1-methylxanthine (IBMX, 15879) and Insulin (19278) were purchased from Sigma/Aldrich/Fluka.
Bone cell maturation is accompanied by extracellular matrix (ECM) mineralization (John Bilezikian et al., Principles of bone biology, Vol 1, 2nd edn: Academic Press) (2002)). To examine whether the osteogenic differentiation of hMSCs induced by the hit siRNAs can further proceed to the maturation stage, hit siRNA treated cells were cultured for 20 days. […] These observations are consistent with the conclusion that the targeted genes of the ten effective hit siRNAs not only play inhibitory roles in osteogenic specification of hMSCs, but also in bone cell maturation. […] Furthermore, in osteoporotic patients, the number of adipocytes was increased in the marrow, implying a change of cell fate disposition from osteoblast lineage to adipocyte lineage (Justesen, J. et al., Biogerontology 2:165-171 (2001); Meunier, P. et al., Clin Orthop Relat Res 80:147-154 (1971)). We therefore examined the effect of our hit siRNAs on adipogenic differentiation of hMSCs by combined treatment with an adipogenic inducing cocktail (100 μg/ml BMX, 1 μM DEX and 10 μg/ml insulin).
Since the targeted genes are all positively involved in intracellular cAMP signaling, we tested the effect of two compounds of opposing function on cAMP production on osteogenic differentiation of hMSCs, ADK inhibitor 5-iodotubercidin and ADCY activator forskolin (Cottam, H. B. et al., J Med Chem 36:3424-3430 (1993); de Souza, N. J. et al., Med Res Rev 3:201-219 (1983)). […] ATP has been shown as a ligand for P2RY11 receptor (Communi et al., 1997). […] The present observations are consistent with the conclusion that […] in hMSCs, and vice versa.

hMSCs [3] = assay: Alizarin red staining for calcium phosphate deposits (ECM mineralization, bone cell maturation); conditions: OS treatment started three days after siRNA transfection and continued for 9 days (3+9OS), vs siCon
p38 = assay: Western blot of phosphorylated p38; conditions: 72 hours after transfection
Description: Cell lyses buffer contains 20 mM Tris pH8.0, 1 mM EDTA, 150 mM NaCl and 0.5% NP-40, and before usage, protease inhibitor cocktail (Cat# p8340, Sigma, 1:100 dilution) and phosphatase inhibitor cocktail 2 (Cat# p5726, sigma, 1:100 dilution) were added. Proteins (60 μg/well) were separated in 12% Novex Tris-Glycine gel (Cat# EC6008 box, Invitrogen) and transferred to Nitrocellulose membrane (Cat# LC2001, Invitrogen) using the XCell II blot module system (Cat# E19051, Invitrogen). The membrane was blocked in 5% milk/PBST for 1 hour at room temperature, incubated over night at 4 degree with primary antibody, washed 3 times with PBST (0.05% Tween 20 in PBS), followed by one hour incubation with secondary antibody in 5% milk/PBST and 3 times wash with PBST at room temperature. For antibody against pCREB however, PBST was substituted with PBS in all steps except for the last one. Antibody-bound proteins were detected utilizing ECL Western blotting detection reagent (Amersham Biosciences).
Anti-phospho-CREB was purchased from Upstate Biotechnology (cat# 06-519); Anti-phospho-p38 was purchased from Cell signaling technology (cat# 9910).
We therefore examined the activation status of ERK1/2 and p38 in the siDUSP6 treated hMSCs along with other siRNA treated samples by western blot using antibodies against the phosphorylated form of the protein at 72 hours after transfection (FIG. 9c).

PLZF = assay: RT-PCR of PLZF; conditions: samples collected day 7 or day 12 after siRNA transfection
Description: Total RNA from each sample was prepared from around 5×10(4) cells using RNAeasy mini kit from Qiagen and further treated with Turbo DNA-Free (cat# 1907, Ambion) to prevent DNA contamination. Reverse transcription was carried out using SuperScript First-Strand Synthesis System for RT-PCR (cat# 11904-018, Invitrogen) or Qiagen OneStep RT-PCR kit (cat# 210210) as instructed. PCR primers used were as follows: […]
To test their roles in our siRNA induced osteogenic differentiation, RT-PCR was performed on these genes. […] In addition, MAPK signaling pathways have been shown activated in the OS treated hMSCs, and inhibition of these pathways suppresses OS induced osteogenesis (FIG. 9b) (Jaiswal, R. K. et al., J Biol Chem 275:9645-9652 (2000)).

“CBFA1 siRNA: CBFA1-specific siRNA, antisense UAGUAGAGAUAUGGAGUGCtg, sense GCACUCCAUAUCUCUACUAtt (chain 1 UAGUAGAGAUAUGGAGUGCTG; chain 2 GCACUCCAUAUCUCUACUATT; chemistry not given here) [reference compound]” was tested, and the “ALP activity induced by hit siRNAs or OS on co-treatment” value (hMSCs [1]; co-transfected with each hit siRNA, vs co-treatment with siCon) was “reduced the level of ALP activity”.
“siCOMP: siRNA CGGUCACGGAUGACGACUA targeting cartilage oligomeric matrix protein (listed as RNA, further chemistry not given here)” was tested, and the “adipogenesis induced by adipogenic inducing media (Adipo)” value (hMSCs [2]) was “enhances adipogenesis” and the “osteogenic differentiation (ALP activity)” value (hMSCs [1]; 9 days after siRNA transfection) was “induces osteogenic differentiation of hMSCs”.
With “siDUSP6: siRNA CUGUGGUGUCUUGGUACAU targeting dual specificity phosphatase 6 (listed as RNA, chemistry not given here)” the “intensity of alizarin red staining” value (hMSCs [3]) was “modest enhancement” and the “level of active (phosphorylated) p38” value (p38) was “increased level of active p38”.
For “siMJD: siRNA CAGAUGCAUCGACCAAAAC targeting Machado-Joseph disease (ataxin 3) (listed as RNA, chemistry not given here)”, the “expression of PLZF” value (PLZF) was “detected” and the “intensity of alizarin red staining” value (hMSCs [3]) was “no significant effect”.
